# Patent US12643935B2, “PD-L1 binding peptides” (UNIVERSITY OF SOUTHERN CALIFORNIA, priority 2020, dated 2026)
# “Also recorded” adds a separate entry of the source.
# Experiments:
# [1] = target: T1, human PD-L2 (hPD-L2) (Homo sapiens, UniProt Q9BQ51); assay: Radiolabeled [35S] peptide binding assay on hPD-L2*; settings: [35S]-labeled peptide
# T1 construct: The hPD-L2* vector included amino acids L20-T220, an Avi Tag and a hexahistidine tag; hexahistidine tag; made in house; host or cells: Expi293F
# T1 sequence (Q9BQ51 20-220): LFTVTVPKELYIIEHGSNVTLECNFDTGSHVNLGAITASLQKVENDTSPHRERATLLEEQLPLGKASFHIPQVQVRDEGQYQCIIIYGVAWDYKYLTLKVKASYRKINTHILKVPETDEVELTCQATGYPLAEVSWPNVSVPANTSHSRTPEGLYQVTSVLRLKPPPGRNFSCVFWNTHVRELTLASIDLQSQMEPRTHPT
# Experimental: (§1) SPAM Peptide Selectively Binds to hPD-L1. SPAM was also tested for binding specificity towards mouse PD-L1 (mPD-L1) and human PD-L2 (hPD-L2) using radioactive binding assays. SPAM peptide mRNA was translated in vitro in the presence of [^35S]-methionine to generate [^35S]-labeled SPAM peptide.
# (§2) [^35S]-labeled peptides were translated as described above by including 2 μCi labeled methionine (Perkin Elmer) per 10 pmol of template in the translation reaction. Each peptide was tested with a […] (for X9-library derived peptides) (SEQ ID NO: 11) or a […] (for X17-library derived peptides) (SEQ ID NO: 12) C-terminal sequence. […] The supernatant was removed and was counted. The beads were subsequently washed three times with 1 mL of blocking buffer and the washes were also counted. Finally, the beads were resuspended in 1 mL of blocking buffer and were counted separately. The ratio of the counts remaining on the beads to the total counts added to the binding reaction (the sum of the counts for supernatant, washes, and beads) was calculated to determine the percent bound.
# [2] = target: T2, hPD-L1 expressed on the surface of Chinese hamster ovary (CHO) cells (CHO-hPD-L1) (Homo sapiens, UniProt Q9NZQ7); assay: Antibody competition by flow cytometry on CHO-hPD-L1 cells; type: cell-based
# T2 construct: expressed in transfected cells; host or cells: CHO
# T2 sequence (Q9NZQ7 19-290): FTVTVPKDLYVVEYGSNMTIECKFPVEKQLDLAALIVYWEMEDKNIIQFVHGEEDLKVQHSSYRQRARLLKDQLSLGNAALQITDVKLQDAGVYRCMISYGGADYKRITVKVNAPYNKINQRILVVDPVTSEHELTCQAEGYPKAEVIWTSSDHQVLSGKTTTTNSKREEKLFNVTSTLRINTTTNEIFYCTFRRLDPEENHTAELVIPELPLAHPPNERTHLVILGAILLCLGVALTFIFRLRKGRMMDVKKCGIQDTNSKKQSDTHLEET
# Source text: To do this, we measured SPAM peptide inhibition of anti-PD-L1 antibody binding to hPD-L1 expressed on the surface of Chinese hamster ovary (CHO) cells (CHO-hPD-L1). […] Cells were washed again and analyzed by flow cytometry (FIG. 5B-C).
# Cells were then washed three times with cold serum free DMEM. Cells were subsequently processed by flow cytometry with a BD FACSCalibur system using the FL1 channel. FlowJo v10.1 was used to gate to the major population and median FL1 fluorescence reported.
# [3] = target: T3, mouse PD-L1 (mPD-L1) (Mus musculus, UniProt Q9EP73); assay: Radiolabeled [35S] peptide binding assay on mPD-L1; settings: [35S]-labeled peptide
# T3 construct: The expression construct for mPD-L1 consisted of its extracellular domain (from A18 to H239) with a methionine added to the N-terminus; hexahistidine tag (C); made in house; host or cells: E. coli BL21 (DE3)
# T3 sequence (Q9EP73 with tags, fused parts or gaps): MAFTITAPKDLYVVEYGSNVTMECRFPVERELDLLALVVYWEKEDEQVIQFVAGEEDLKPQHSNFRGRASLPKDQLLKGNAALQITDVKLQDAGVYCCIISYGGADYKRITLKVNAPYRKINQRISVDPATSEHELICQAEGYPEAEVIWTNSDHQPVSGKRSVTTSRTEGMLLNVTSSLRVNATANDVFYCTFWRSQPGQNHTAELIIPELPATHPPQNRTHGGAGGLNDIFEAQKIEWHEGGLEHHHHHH
# Experimental: as §1, §2
# [4] = target: T4, hPD-L1 (Homo sapiens, UniProt Q9NZQ7); assay: Fluorescence polarization of ROX-labeled SPAM with glycosylated hPD-L1*; type: binding; parameters: The hPD-L1* vector included amino acids A18-T239, an Avi Tag and a hexahistidine tag; hexahistidine tag; made in house; host or cells: Expi293F; settings: T=22° C., 100 nM ROX-SPAM, read-out: dissociation constant (KD) for hPD-L1*
# Experimental: (§3) To evaluate the affinity of SPAM for hPD-L1 and hPD-L1*, we measured the KD by fluorescence polarization. […] The resulting values were plotted against the concentration of hPD-L1 or hPD-L1* and fit to a one-site saturation binding model with GraphPad Prism.
# (§4) A stock solution of hPD-L1 or hPD-L1* with a 5 μM starting concentration was prepared and serially diluted to concentrations ranging from 5 μM to 2.4 nM. […] The fluorescence polarization of each sample was measured on a Synergy H4 Hybrid Multi-Mode Microplate Reader. Each measurement was carried out in triplicate and the mean value was calculated. The values were fit to a one-site saturation binding model in GraphPad Prism to obtain the corresponding equilibrium dissociation constants.
# Target sequence in this assay (Q9NZQ7 18-239): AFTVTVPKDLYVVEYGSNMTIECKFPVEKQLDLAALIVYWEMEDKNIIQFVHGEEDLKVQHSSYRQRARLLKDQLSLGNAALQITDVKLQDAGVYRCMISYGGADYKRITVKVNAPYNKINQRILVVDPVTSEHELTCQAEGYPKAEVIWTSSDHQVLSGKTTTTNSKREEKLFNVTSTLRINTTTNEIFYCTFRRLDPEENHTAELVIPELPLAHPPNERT
# [5] = target: T4, hPD-L1; assay: Fluorescence polarization of ROX-labeled SPAM with hPD-L1; type: binding; parameters: designed from A18 to T239 with a methionine added to the N-terminus; hexahistidine tag (C); made in house
# Experimental: as §3, §4
# Target sequence in this assay (Q9NZQ7 with tags, fused parts or gaps): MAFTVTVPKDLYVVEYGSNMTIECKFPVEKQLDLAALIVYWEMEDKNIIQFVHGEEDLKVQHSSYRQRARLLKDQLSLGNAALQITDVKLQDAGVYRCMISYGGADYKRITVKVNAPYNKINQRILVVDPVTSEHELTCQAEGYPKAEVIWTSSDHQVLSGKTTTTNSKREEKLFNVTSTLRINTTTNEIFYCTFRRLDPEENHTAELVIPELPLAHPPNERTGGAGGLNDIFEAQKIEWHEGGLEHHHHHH
# [6] = target: T4, hPD-L1; assay: hPD-L1 binding of [35S]-SPAM after incubation in 25% human serum; type: in vitro ADME; parameters: designed from A18 to T239 with a methionine added to the N-terminus; hexahistidine tag (C); made in house; settings: 37° C.
# Experimental: We performed two complementary assays to determine what effect serum has on the SPAM/hPD-L1 interaction.
# In a complementary test, SPAM was in vitro translated and [^35S]-labeled as described above. After purification as above, the [^35S]-labeled peptide-RNA fusions were incubated with DMEM media supplemented with 25% (v/v) single donor human plasma at 37° C. in triplicate for 0, 60, 120, 240 and 480 min. The binding of serum incubated peptides was then evaluated on hPD-L1 immobilized beads using 75 pmol hPD-L1 immobilized on streptavidin agarose beads (Thermo Fisher scientific) in DMEM supplemented with 25% Serum buffer and 0.02 mM biotin at 4° C. for 1 h. The supernatant was removed and was counted. The beads were subsequently washed three times with 1 mL of blocking buffer and the washes were also counted. Finally, the beads were resuspended in 1 mL of blocking buffer and were counted separately. The ratio of the counts remaining on the beads to the total counts added to the binding reaction (the sum of the counts for supernatant, washes, and beads) was calculated to determine the percent bound.
# Target sequence in this assay (Q9NZQ7 with tags, fused parts or gaps): as above
smiles,measurement,setting,value
C#CC[C@H](NC(=O)CNC(=O)[C@H](CO)NC(=O)[C@H](C)NC(=O)[C@H](Cc1ccc(O)cc1)NC(=O)[C@H](Cc1c[nH]cn1)NC(=O)[C@H](CC(C)C)NC(=O)[C@@H](NC(=O)[C@H](Cc1c[nH]c2ccccc12)NC(=O)[C@H](Cc1ccccc1)NC(=O)[C@H](CCCCN)NC(=O)[C@H](CC(N)=O)NC(=O)[C@H](CC(C)C)NC(=O)[C@@H](NC(=O)[C@H](Cc1c[nH]cn1)NC(=O)[C@H](CC(=O)O)NC(=O)[C@H](CC(C)C)NC(=O)[C@H](Cc1ccccc1)NC(=O)[C@@H](NC(=O)[C@@H]1CCCN1C(=O)[C@@H](N)CCSC)[C@@H](C)CC)[C@@H](C)CC)[C@@H](C)CC)C(N)=O (stereo in doubt) [SPAM],binding to hPD-L2,[1],no significant binding; also recorded: essentially no binding
same,Fluorescein-Atezolizumab and Fluorescein-Avelumab binding to CHO-hPD-L1 after pre-incubation,"[2]; pre-incubation 30 min 4° C., 0-20 μM, SPAM effect at 20 μM, 1 nM Atezolizumab, 10 nM Avelumab",significant decrease
same,blocking of Fluorescein-16373 and Fluorescein-16377 in CHO-hPD-L1 cells,"[2]; pre-treatment 0-20 μM, 50 nM antibody",blocking
same,binding to mPD-L1,[3],not pulled-down; also recorded: essentially no binding; also recorded: no significant binding
same,Kd,[4],67 nM
same,Kd,"[5]; non-glycosylated hPD-L1, T=21° C., 100 nM ROX-SPAM, read-out: dissociation constant (KD) for hPD-L1",119 nM
same,Kd,"[5]; range over glycosylated and non-glycosylated hPD-L1, read-out: KD for hPD-L1",67 to 119 nM
same,loss of binding in presence of human serum,[6],~25%
same,binding to immobilized hPD-L1 after serum incubation,[6]; eight hours,no further decrease
same,binding to immobilized hPD-L1 after serum incubation,[6]; four hours,slight decrease
same,binding to immobilized hPD-L1 after serum incubation,[6]; two hours,No decrease
